Laboratory results from patent US20230112418A1, “COMPOUND AND RADIOACTIVE LABELING COMPOUND” (NIHON MEDI-PHYSICS CO., LTD., priority 2020, published 2023).
Blank lines part the entries; values can stand above or below the molecule they belong to.

Assays:
[1] = compared with kidney value one hour after the injection; EJNMMI Res 2012, J Nucl Med 2017; cited from earlier work
[2] = tested on: LNCaP tumor transplanted mice; experiment: Suppression of tumor growth by 90Y-labeled compound; format: in vivo; conditions: 3.7 MBq i.v., FIG. 8
Protocol: A saline solution (100 μL) of [^90Y]Y-PSMA-DA1 (3.7 MBq) or [^90Y]Y-PSMA-DB (3.7 MBq) obtained by the above-described method was injected into each of the LNCaP tumor transplanted mice via the tail vein thereof (n=7). As a control group, 100 μL of saline was injected into each of the LNCaP tumor transplanted mice via the tail vein thereof (n=7).
After the injection of the ^90Y-labeled compound, a tumor volume and a body weight were measured three times per week. The tumor volume was calculated based on a calculation formula “(tumor volume)=[(long side)×(short side)^2/2]”.

HT-29 tumor-bearing mice = experiment: In vivo radioactivity distribution assay in HT-29 tumor-bearing mice
Text: Under 2% isoflurane anesthesia, a suspension of HT-29 cells (5×10^6 cells/mouse) expressing CA-IX was subcutaneously injected into the left shoulder of each of 5-week-old male BALB/c nude mice (purchased from SHIMIZU Laboratory Supplies CO., LTD.). The composition of the suspension was a mixture of HT-29 cells/DMEM medium (manufactured by Thermo Fisher Scientific Inc.) and a matrix product (Geltrex (registered trademark) (manufactured by Thermo Fisher) at a volume ratio of 1:1.
Thereafter, the subcutaneously injected mice were raised for 14 days in a raising room that switches day and night every 12 hours with normal food and tap water to obtain HT-29 tumor-bearing mice.
Then, a saline solution (259 kBq, 100 μL, containing 3 mg of ascorbic acid) of each of the radioactive labeled compounds of Examples 1 to 3 or a saline solution (259 kBq, 100 μL, containing 1 mg of ascorbic acid) of the radioactive labeled compound of Comparative Example 1 was injected into each of the mice via the tail vein thereof. The mice (n=5 in each group) were euthanized 1, 4, 8, 24, 48, 96, or 192 hours after the injection, blood, organs, and tumor sites were collected, and the masses thereof were measured. The amount of radioactivity was measured with a gamma counter.
(§1) The degree of accumulation of the radioactive labeled compound is indicated as a value (% injected dose/g) obtained by dividing the percentage (% ID) of the amount of radioactivity with respect to the amount of injected radioactivity (injected dose) by the mass of blood or the mass of an organ (g). […] Results are illustrated in FIG. 1.

CA-IX = molecular target: T1, CA-IX (Homo sapiens, UniProt Q16790); experiment: Cell binding inhibition assay (acetazolamide as inhibitor, HT-29 cells); conditions: IC50 of inhibitor acetazolamide against binding of the radioactive labeled compound to HT-29 cells, 2 h; larger value = higher affinity of labeled compound for CA-IX; read-out: IC50 (nM, mean ± SD)
T1 construct: HT-29 cells (CA-IX highly expressing cells, purchased from Sumitomo Dainippon Pharma Co., Ltd.); host or cells: HT-29 cells
Protocol: In this evaluation, binding properties of [^111In]IS-DO2A-ALB1 to DO2A-ALB4 and [^111In]DO3A-IS1 with respect to CA-IX were evaluated.
Specifically, HT-29 cells (CA-IX highly expressing cells, purchased from Sumitomo Dainippon Pharma Co., Ltd.) were seeded together with a medium at 4.0×10^5 cells/well in a 12 well plate, and cultured at 37° C. for 24 hours in an atmosphere of 5% carbon dioxide.
Subsequently, the medium was removed, and a medium containing any one of the radioactive labeled compounds of Examples 1 to 4 and Comparative Example 1 (37 kBq/mL) was added to each well in an amount of 1 mL such that the acetazolamide concentration was 50000 to 0.00512 nM as an inhibitor, and the sample was cultured at 37° C. for two hours in an atmosphere of 5% carbon dioxide. In addition, a sample containing the radioactive labeled compound and not containing acetazolamide was also cultured under similar conditions. The experiment was performed with each concentration group at n=6.
Subsequently, the medium was removed, the residue was washed with PBS (1 mL), and cells were lysed with a 1 N sodium hydroxide aqueous solution (200 μL×2) to obtain a cell lysate. Then, the amount of radioactivity in the cell lysate and that in the medium containing the radioactive labeled compound were each measured with a gamma counter (type name: Wallac 2470 Wizard manufactured by PerkinElmer, Massachusetts, U.S.A.). Separately from this, the total protein mass (mg protein) in the cell lysate was quantified by a BCA method. […] Results are illustrated in Table 2 below as mean±standard deviation (mean±SD).
That is, the […] the calculated value of IC50, the higher affinity between the radioactive labeled compound and CA-IX.

[3] = tested on: MDA-MB-231 tumor-bearing mice; experiment: In vivo radioactivity distribution assay in MDA-MB-231 tumor-bearing mice; conditions: 24 hours after injection
Protocol: In a similar manner to Evaluation 3, a suspension of MDA-MB-231 cells (1×10^7 cells/mouse) having low expression of CA-IX was subcutaneously injected into the left shoulder of each of 5-week-old male BALB/c nude mice to obtain MDA-MB-231 tumor-bearing mice.
Then, a saline solution (40 kBq, 100 μL, containing 3 mg of ascorbic acid) of the radioactive labeled compound of Example 1 was injected into each of the mice via the tail vein thereof. Mice (n=5 in each group) were euthanized 24 hours after the injection, blood, organs, and tumor sites were collected, and the masses thereof were measured. The amount of radioactivity was measured with a gamma counter.
as §1, with “ID/g)” for “injected dose/g)”, “Table 3 as mean±standard deviation (n=5).” for “FIG. 1.”

[4] = Distribution coefficient (1-octanol/PBS); format: physicochemical; conditions: log10, 1-octanol/PBS pH 7.4, n=5
Protocol: The radioactive labeled compound (740 kBq) of any one of Examples and Comparative Examples was added to a mixed liquid of PBS (3 mL, pH 7.4 (20° C.)) and 1-octanol (3 mL), and the mixture was vortexed for two minutes and then centrifuged at 4000×g for five minutes. Thereafter, 1 mL of the 1-octanol layer and 500 μL of the PBS layer were collected, and the amount of radioactivity of each of the layers was measured with a gamma counter (n=5).
As a calculation formula of a distribution coefficient, “log10 [(amount of radioactivity of 1-octanol layer)/(amount of radioactivity of PBS layer×2)]” was used. Results are illustrated in Table 1 below as mean±standard deviation (mean±SD).
[^111In]In-PtDA (111 kBq) was added to a mixed liquid of PBS (pH 7.4, 3 mL) and 1-octanol (3 mL). The mixture was dispersed by vortexing for two minutes, and then centrifuged at 4000×g for five minutes. 1 mL of the 1-octanol layer and 1 mL of the PBS layer were collected, and the radioactivity of each of the layers was measured with a gamma counter (n=3).
As a calculation formula, “(distribution coefficient)=[…]) [(radioactivity of 1-octanol layer [kBq])/(radioactivity of PBS layer [kBq])]” was used.

SMILES: O=C([O-])CN(CCN(CC(=O)[O-])Cc1cc(CCC(=O)NCCCCCC(=O)NCCCC[C@H](NC(=O)N[C@@H](CCC(=O)O)C(=O)O)C(=O)O)ccc1[O-])Cc1cc(CCC(=O)O)ccc1[O-].[68Ga+3].[OH3+] [[^68Ga]Ga-PSMA-11]
Accumulation in the kidney (literature) [1]: 139 % ID/g

SMILES: O=C([O-])CN1CCN(C(CCC(=O)NCCCC[C@H](NC(=O)N[C@@H](CCC(=O)O)C(=O)O)C(=O)O)C(=O)[O-])CCN(CC(=O)[O-])CCN(C(CCC(=O)Nc2ccccc2)C(=O)[O-])CC1.[90Y+3] (stereo partly shown) [[^90Y]Y-PSMA-DB]
Time after injection at which a significant difference in tumor volume vs saline group was observed [2]: ≥ 33 days

Amount accumulated in the tumor expressing CA-IX (in words) (HT-29 tumor-bearing mice; FIG. 1, HT-29 tumor): poor
SMILES: NS(=O)(=O)c1nn2cc(-c3ccc(NC(=O)CN4CCN(CC(=O)[O-])CCN(CC(=O)[O-])CCN(CC(=O)[O-])CC4)cc3)nc2s1.[111In+3] [[^111In]DO3A-IS1]
Amount accumulated in the kidney (in words) (HT-29 tumor-bearing mice; FIG. 1): very large as compared with the results of Examples

IC50 (CA-IX): 571.4 ± 2.6 nM | Radioactivity accumulated amount: Blood [3]: 5.50 ± 1.17 % ID/g | Radioactivity accumulated amount: Brain [3]: 0.34 ± 0.03 % ID/g | Radioactivity accumulated amount: Heart [3]: 3.12 ± 0.25 % ID/g | Radioactivity accumulated amount: Intestinal [3]: 4.65 ± 0.48 % ID/g | Radioactivity accumulated amount: Kidney [3]: 11.42 ± 0.65 % ID/g | Radioactivity accumulated amount: Liver [3]: 2.64 ± 0.47 % ID/g | Radioactivity accumulated amount: Lung [3]: 7.28 ± 0.85 % ID/g | Radioactivity accumulated amount: Muscle [3]: 1.21 ± 0.22 % ID/g | Radioactivity accumulated amount: Pancreas [3]: 2.27 ± 0.30 % ID/g | Radioactivity accumulated amount: Spleen [3]: 2.04 ± 0.45 % ID/g | Radioactivity accumulated amount: Stomach [3]: 4.44 ± 0.48 % ID | Radioactivity accumulated amount: Tumor (MDA-MB-231) [3]: 5.05 ± 0.59 % ID/g | Tumor/blood radioactivity ratio [3]: 0.94 ± 0.17 | Tumor/kidney radioactivity ratio [3]: 0.44 ± 0.05 | Tumor/muscle radioactivity ratio [3]: 4.22 ± 0.47 | Distribution coefficient (mean ± SD) [4]: −1.70 ± 0.01 | Accumulation in the HT-29 tumor (HT-29 tumor-bearing mice; value of Evaluation 3 quoted for comparison with Table 3): 10.73 % ID/g
SMILES: NS(=O)(=O)c1nn2cc(-c3ccc(NC(=O)CN4CCN(CC(=O)O)CCN(CC(=O)N[C@@H](CCCCNC(=O)CCCc5ccc(I)cc5)C(=O)O)CCN(CC(=O)O)CC4)cc3)nc2s1.[111In+3] [[^111In]IS-DO2A-ALB1]
